According to ChEMBL document CHEMBL1201862, “PubChem BioAssay data set” (2004):
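These data come from cells grown in 96-well plates and exposed to compound for 48 hours at five concentrations. Abbreviation: GI50, concentration required for 50% inhibition of growth.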 Activity calls are given as the source filed them. No stated cut-off is given here; in the data, active = GI50 up to about 1.1 µM and inactive = higher.

What was measured:
Test in all cases: inhibition of tumour cell growth, NCI panel, 48 h
MCF7 = tested on: MCF7
A498 = tested on: A498
TK-10 = tested on: TK-10
IGROV-1 = tested on: IGROV-1
RPMI-8226 = tested on: RPMI-8226
DLD-1 = tested on: DLD-1
OVCAR-8 = tested on: OVCAR-8
NCI-H522 = tested on: NCI-H522
EKVX = tested on: EKVX
HCT-15 = tested on: HCT-15
UO-31 = tested on: UO-31
SNB-19 = tested on: SNB-19
DU-145 = tested on: DU-145
HOP-18 = tested on: HOP-18
OVCAR-3 = tested on: OVCAR-3
M14 = tested on: M14
MDA-MB-435 = tested on: MDA-MB-435
HL-60 = tested on: HL-60
KM-20L2 = tested on: KM-20L2
DMS-273 = tested on: DMS-273
SN12C = tested on: SN12C
K562 = tested on: K562
RXF 393 = tested on: RXF 393
SF-295 = tested on: SF-295
CAKI-1 = tested on: CAKI-1
MDA-MB-231 = tested on: MDA-MB-231
SW-620 = tested on: SW-620
DMS-114 = tested on: DMS-114
786-0 = tested on: 786-0
Hs-578T = tested on: Hs-578T
ACHN = tested on: ACHN
T47D = tested on: T47D
UACC-257 = tested on: UACC-257
LXFL 529 = tested on: LXFL 529
HCT-116 = tested on: HCT-116
LOX IMVI = tested on: LOX IMVI
NCI/ADR-RES = tested on: NCI/ADR-RES
HOP-92 = tested on: HOP-92
Malme-3M = tested on: Malme-3M
OVCAR-4 = tested on: OVCAR-4
XF498 = tested on: XF498
M19-MEL = tested on: M19-MEL
SF-268 = tested on: SF-268
SK-MEL-5 = tested on: SK-MEL-5
U-251 = tested on: U-251
SNB-75 = tested on: SNB-75
MOLT-4 = tested on: MOLT-4
A549 = tested on: A549
HCC 2998 = tested on: HCC 2998
CCRF-CEM = tested on: CCRF-CEM
NCI-H226 = tested on: NCI-H226
SK-MEL-28 = tested on: SK-MEL-28
PC-3 = tested on: PC-3
SF-539 = tested on: SF-539
HT-29 = tested on: HT-29
SK-MEL-2 = tested on: SK-MEL-2
OVCAR-5 = tested on: OVCAR-5
UACC-62 = tested on: UACC-62
SNB-78 = tested on: SNB-78
SK-OV-3 = tested on: SK-OV-3
NCI-H460 = tested on: NCI-H460
KM12 = tested on: KM12
NCI-H23 = tested on: NCI-H23
HOP-62 = tested on: HOP-62
MDA-N = tested on: MDA-N
BT-549 = tested on: BT-549
COLO 205 = tested on: COLO 205
RXF 631 = tested on: RXF 631

O=C1c2cc([N+](=O)[O-])cc3cc([N+](=O)[O-])cc(c23)C(=O)N1CCCNCCNCCCN1C(=O)c2cc([N+](=O)[O-])cc3cc([N+](=O)[O-])cc(c23)C1=O
GI50 (MCF7): 69.5 nM (active) | GI50 (A498): 769 nM (active) | GI50 (TK-10): 1190 nM (inactive) | GI50 (IGROV-1): 30.1 nM (active) | GI50 (RPMI-8226): < 11.4 nM (active) | GI50 (DLD-1): 28.2 nM (active) | GI50 (OVCAR-8): 84.1 nM (active) | GI50 (NCI-H522): 55.1 nM (active) | GI50 (EKVX): 1050 nM (active) | GI50 (HCT-15): 117 nM | GI50 (UO-31): 375 nM (active) | GI50 (SNB-19): 326 nM (active) | GI50 (DU-145): 453 nM (active) | GI50 (HOP-18): 542 nM (active) | GI50 (OVCAR-3): 89.7 nM (active) | GI50 (M14): 384 nM (active) | GI50 (MDA-MB-435): 975 nM (active) | GI50 (HL-60): 16.6 nM (active) | GI50 (KM-20L2): 129 nM (active) | GI50 (DMS-273): < 10 nM (active) | GI50 (SN12C): 36.6 nM (active) | GI50 (K562): < 16.7 nM (active) | GI50 (RXF 393): 31.7 nM (active) | GI50 (SF-295): 46.2 nM (active) | GI50 (CAKI-1): 182 nM (active) | GI50 (MDA-MB-231): 414 nM (active) | GI50 (SW-620): 73 nM (active) | GI50 (DMS-114): 46.9 nM (active) | GI50 (786-0): 87.9 nM (active) | GI50 (Hs-578T): 106 nM (active) | GI50 (ACHN): 29.6 nM (active) | GI50 (T47D): 587 nM (active) | GI50 (UACC-257): 490 nM (active) | GI50 (LXFL 529): < 10 nM (active) | GI50 (HCT-116): 10.2 nM (active) | GI50 (LOX IMVI): 14.2 nM (active) | GI50 (NCI/ADR-RES): 1340 nM (inactive) | GI50 (HOP-92): 337 nM (active) | GI50 (Malme-3M): 223 nM (active) | GI50 (OVCAR-4): 178 nM (active) | GI50 (XF498): < 10 nM (active) | GI50 (M19-MEL): 38.1 nM (active) | GI50 (SF-268): 22.2 nM (active) | GI50 (SK-MEL-5): 287 nM (active) | GI50 (U-251): 39.5 nM (active) | GI50 (SNB-75): 308 nM (active) | GI50 (MOLT-4): < 10 nM (active) | GI50 (A549): 29.4 nM (active) | GI50 (HCC 2998): 65.5 nM (active) | GI50 (CCRF-CEM): < 15 nM (active) | GI50 (NCI-H226): 64.1 nM (active) | GI50 (SK-MEL-28): 233 nM (active) | GI50 (PC-3): 376 nM (active) | GI50 (SF-539): 53.3 nM (active) | GI50 (HT-29): 20.1 nM (active) | GI50 (SK-MEL-2): 124 nM (active) | GI50 (OVCAR-5): 268 nM (active) | GI50 (UACC-62): 302 nM (active) | GI50 (SNB-78): < 19.3 nM (active) | GI50 (SK-OV-3): 1790 nM (inactive) | GI50 (NCI-H460): 16.9 nM (active) | GI50 (KM12): 58.2 nM (active) | GI50 (NCI-H23): 93.1 nM (active) | GI50 (HOP-62): 185 nM (active) | GI50 (MDA-N): 752 nM (active) | GI50 (BT-549): 1700 nM (inactive) | GI50 (COLO 205): 41 nM (active)

CN1c2ccccc2N(C)C23N(C)c4ccccc4N(C)C12N(C)c1ccccc1N3C (centres undefined)
GI50 (A498): > 100000 nM (inactive) | GI50 (TK-10): > 100000 nM (inactive) | GI50 (IGROV-1): > 100000 nM (inactive) | GI50 (DLD-1): > 100000 nM (inactive) | GI50 (OVCAR-8): > 100000 nM (inactive) | GI50 (NCI-H522): > 100000 nM (inactive) | GI50 (EKVX): > 100000 nM (inactive) | GI50 (HCT-15): > 100000 nM | GI50 (UO-31): > 100000 nM (inactive) | GI50 (SNB-19): > 100000 nM (inactive) | GI50 (OVCAR-3): 33600 nM (inactive) | GI50 (M14): > 100000 nM (inactive) | GI50 (HL-60): > 100000 nM (inactive) | GI50 (KM-20L2): > 100000 nM (inactive) | GI50 (DMS-273): > 100000 nM (inactive) | GI50 (SN12C): > 100000 nM (inactive) | GI50 (K562): > 100000 nM (inactive) | GI50 (RXF 393): > 100000 nM (inactive) | GI50 (SF-295): > 100000 nM (inactive) | GI50 (CAKI-1): > 100000 nM (inactive) | GI50 (SW-620): > 100000 nM (inactive) | GI50 (DMS-114): > 100000 nM (inactive) | GI50 (786-0): > 100000 nM (inactive) | GI50 (ACHN): > 100000 nM (inactive) | GI50 (UACC-257): > 100000 nM (inactive) | GI50 (HCT-116): > 100000 nM (inactive) | GI50 (LOX IMVI): > 100000 nM (inactive) | GI50 (HOP-92): 22900 nM (inactive) | GI50 (Malme-3M): > 100000 nM (inactive) | GI50 (XF498): 49100 nM (inactive) | GI50 (M19-MEL): > 100000 nM (inactive) | GI50 (RXF 631): > 100000 nM (inactive) | GI50 (SF-268): > 100000 nM (inactive) | GI50 (SK-MEL-5): > 100000 nM (inactive) | GI50 (U-251): > 100000 nM (inactive) | GI50 (SNB-75): 35600 nM (inactive) | GI50 (MOLT-4): > 100000 nM (inactive) | GI50 (A549): > 100000 nM (inactive) | GI50 (HCC 2998): > 100000 nM (inactive) | GI50 (CCRF-CEM): > 100000 nM (inactive) | GI50 (NCI-H226): > 100000 nM (inactive) | GI50 (SK-MEL-28): > 100000 nM (inactive) | GI50 (SF-539): > 100000 nM (inactive) | GI50 (HT-29): > 100000 nM (inactive) | GI50 (SK-MEL-2): > 100000 nM (inactive) | GI50 (OVCAR-5): > 100000 nM (inactive) | GI50 (UACC-62): > 100000 nM (inactive) | GI50 (NCI-H460): > 100000 nM (inactive) | GI50 (KM12): > 100000 nM (inactive) | GI50 (NCI-H23): > 100000 nM (inactive) | GI50 (HOP-62): 87100 nM (inactive) | GI50 (COLO 205): > 100000 nM (inactive)
